According to US8193362B2 (Syngenta Crop Protection LLC, priority 2008, dated 2012):
Structures can show the parent of a compound that is named as a salt.

Legend:
Assay type in all cases: in vivo
[1] = tested on: Diabrotica balteata (Corn Root Worm); assay: Diabrotica balteata L2 larvae test on artificial diet in 24-well microtiter plate; conditions: 120 h, 200 ppm (concentration in well 18 ppm), 5 days, larval mortality, growth regulation
Description: Diabrotica balteata (Corn Root Worm):
A 24-well microtiter plate (MTP) with artificial diet was treated with test solutions at an application rate of 200 ppm (concentration in well 18 ppm) by pipetting. After drying, the MTP's were infested with larvae (L2) (6-10 per well). After an incubation period of 5 days, samples were checked for larval mortality, and growth regulation.

[2] = tested on: Spodoptera littoralis (Egyptian Cotton Leafworm); assay: Spodoptera littoralis cotton leaf disc spray test; conditions: foliar, 72 h, 200 ppm spray on cotton leaf discs, L1 larvae, mortality, feeding behavior, growth regulation 3 DAT
Text: Spodoptera littoralis (Egyptian Cotton Leafworm)
Cotton leaf discs were placed on agar in a 24-well microtiter plate and sprayed with test solutions at an application rate of 200 ppm. After drying, the leaf discs were infested with 5 L1 larvae. The samples were checked for mortality, feeding behavior, and growth regulation 3 days after treatment (DAT).

[3] = tested on: Heliothis virescens (Tobacco Budworm); assay: Heliothis virescens egg test on artificial diet in 24-well microtiter plate; conditions: 96 h, 200 ppm (concentration in well 18 ppm), eggs 0-24 h old, 4 days, egg mortality, larval mortality, growth regulation
Description: (§1) Heliothis virescens (Tobacco Budworm):
Eggs (0-24 h old) were placed in 24-well microtiter plate on artificial diet and treated with test solutions at an application rate of 200 ppm (concentration in well 18 ppm) by pipetting. After an incubation period of 4 days, samples were checked for egg mortality, larval mortality and growth regulation.

[4] = tested on: Heliothis virescens (Tobacco Budworm); assay: Comparative Heliothis virescens egg test in petri dishes on artificial diet; conditions: 144 h, 6 days incubation, read-out: percentage of dead larvae; for pest or weed control at 0.8 ppm: concentration 0.8 ppm; for pest or weed control at 1.5 ppm: concentration 1.5 ppm; for pest or weed control at 3 ppm: concentration 3 ppm; for pest or weed control at 6 ppm: concentration 6 ppm
Description: This Example illustrates the pesticidal/insecticidal properties of compounds of formula (I) compared to Comparative Compound A and Comparative Compound B. Comparative Compound A and Comparative Compound B were disclosed in WO 2006/003494.
as §1
Fresh eggs (0-24 h old) on filterpaper were placed in petri dishes on top of a layer of artificial diet and treated with diluted test solutions by pipetting. After an incubation period of 6 days, samples were checked for larval mortality and growth regulation. The percentage of dead larvae was assessed.

[5] = tested on: Plutella xylostella (Diamond Back Moth); assay: Plutella xylostella L2 larvae test on artificial diet in 24-well microtiter plate; conditions: 144 h, 200 ppm (concentration in well 18 ppm), 6 days, larval mortality, growth regulation
Description: Plutella xylostella (Diamond Back Moth):
A 24-well microtiter plate (MTP) with artificial diet was treated with test solutions at an application rate of 200 ppm (concentration in well 18 ppm) by pipetting. After drying, the MTP's were infested with L2 larvae (7-12 per well). After an incubation period of 6 days, samples were checked for larval mortality and growth regulation.

Compound	pest or weed control at 200 ppm [1] [%]	pest or weed control at 200 ppm [2] [%]	pest or weed control at 200 ppm [3] [%]	pest or weed control at 0.8 ppm [4] [%]	pest or weed control at 1.5 ppm [4] [%]	pest or weed control at 3 ppm [4] [%]	pest or weed control at 6 ppm [4] [%]	pest or weed control at 200 ppm [5] [%]	pest or weed control at 200 ppm ([1]; in Zea mays) [%]	pest or weed control at 200 ppm ([2]; in Gossypium hirsutum) [%]
O=C(Nc1cc(C(F)(F)F)c(Cl)nc1C1CCN(C/C=C/c2ccc(Cl)cc2)CC1)c1ccnc(Cl)c1 [Compound F2, 2-chloro-N-{6-chloro-1′-[(E)-3-(4-chloro-phenyl)-allyl]-5-trifluoromethyl-1′,2′,3′,4′,5′,6′-hexahydro-[2,4′]bipyridinyl-3-yl}-isonicotinamide]	≥ 80	≥ 80	≥ 80	100	100	100	100	≥ 80		
O=C(Nc1cc(F)c(Cl)nc1C1CCN(C/C=C/c2ccc(Cl)cc2)CC1)c1ccnc(Cl)c1 [Compound B1, 2-chloro-N-{6-chloro-1′-[(E)-3-(4-chloro-phenyl)-allyl]-5-fluoro-1′,2′,3′,4′,5′,6′-hexahydro-[2,4′]bipyridinyl-3-yl}-isonicotinamide]	≥ 80	≥ 80	≥ 80	80	100	100	100	≥ 80		
O=C(Nc1ccc(C(F)(F)F)nc1C1CCN(C/C=C/c2ccc(Cl)cc2)CC1)c1ccnc(Cl)c1 [Compound Q1, 2-chloro-N-{1′-[(E)-3-(4-chloro-phenyl)-allyl]-6-trifluoromethyl-1′,2′,3′,4′,5′,6′-hexahydro-[2,4′]bipyridinyl-3-yl}-isonicotinamide 2-ethyl-hexanoic acid salt]	≥ 80		≥ 80					≥ 80		
O=C(Nc1cc(C(F)(F)F)c(F)nc1C1CCN(C/C=C/c2ccc(Cl)cc2)CC1)c1ccnc(Cl)c1 [Compound M1, 2-chloro-N-{1′-[(E)-3-(4-chloro-phenyl)-allyl]-6-fluoro-5-trifluoromethyl-1′,2′,3′,4′,5′,6′-hexahydro-[2,4′]bipyridinyl-3-yl}-isonicotinamide]	≥ 80	≥ 80	≥ 80					≥ 80		
O=C(Nc1ccc(C(F)(F)F)nc1C1CC[N+]([O-])(C/C=C/c2ccc(C(F)(F)F)cc2)CC1)c1ccnc(Cl)c1 (stereo not drawn) [Compound R3]	≥ 80	≥ 80	≥ 80					≥ 80		
O=C(Nc1ccc(OC(F)F)nc1C1CCN(C/C=C/c2ccc(Cl)cc2)CC1)c1ccnc(Cl)c1 [Compound P1, 2-chloro-N-{1′-[(E)-3-(4-chloro-phenyl)-allyl]-6-difluoromethoxy-1′,2′,3′,4′,5′,6′-hexahydro-[2,4′]bipyridinyl-3-yl}-isonicotinamide]	≥ 80	≥ 80	≥ 80					≥ 80		
O=C(Nc1ccc(C(F)(F)F)nc1C1CCN(C/C=C/c2ccc(Cl)cc2)CC1)c1ccnc(Cl)c1 [Compound A14, 2-chloro-N-{1′-[(E)-3-(4-chloro-phenyl)-allyl]-6-trifluoromethyl-1′,2′,3′,4′,5′,6′-hexahydro-[2,4′]bipyridinyl-3-yl}-isonicotinamide]		≥ 80		100	100	100	100			
O=C(Nc1cc(Cl)c(C(F)(F)F)nc1C1CCN(C/C=C/c2ccc(Cl)cc2)CC1)c1ccnc(Cl)c1 [Compound H1, 2-chloro-N-{5-chloro-1′-[(E)-3-(4-chloro-phenyl)-allyl]-6-trifluoromethyl-1′,2′,3′,4′,5′,6′-hexahydro-[2,4′]bipyridinyl-3-yl}-isonicotinamide]		≥ 80	≥ 80	40	78	100	100	≥ 80		
O=C(Nc1cc(Cl)c(Cl)nc1C1CCN(C/C=C/c2ccc(Cl)cc2)CC1)c1ccnc(Cl)c1 [Compound Q20]			≥ 80					≥ 80		
O=C(Nc1c(F)cc(C(F)(F)F)nc1C1CCN(C/C=C/c2ccc(Cl)cc2)CC1)c1ccnc(Cl)c1 [Compound K1, 2-chloro-N-{1′-[(E)-3-(4-chloro-phenyl)-allyl]-4-fluoro-6-trifluoromethyl-1′,2′,3′,4′,5′,6′-hexahydro-[2,4′]bipyridinyl-3-yl}-isonicotinamide]		≥ 80	≥ 80					≥ 80		
O=C(Nc1c(C2CCN(C/C=C/c3ccc(Cl)cc3)CC2)nc(Cl)c(Cl)c1Cl)c1ccnc(Cl)c1 [Compound J1, 2-chloro-N-{4,5,6-trichloro-1′-[(E)-3-(4-chlorophenyl)-allyl]-1′,2′,3′,4′,5′,6′-hexahydro-[2,4′]bipyridinyl-3-yl}-isonicotinamide]		≥ 80	≥ 80	40	90	93	100	≥ 80		
O=C(Nc1cc(Cl)c(Cl)nc1C1CCN(C/C=C/c2ccc(Cl)cc2)CC1)c1ccnc(Cl)c1 [Compound C1, 2-chloro-N-{5,6-dichloro-1′-[(E)-3-(4-chloro-phenyl)-allyl]-1′,2′,3′,4′,5′,6′-hexahydro-[2,4′]bipyridinyl-3-yl}-isonicotinamide]	≥ 80	≥ 80		100	100	100	100			
O=C(Nc1ccc(C(F)F)nc1C1CCN(C/C=C/c2ccc(Cl)cc2)CC1)c1ccnc(Cl)c1 [Compound O1, 2-chloro-N-{1′-[(E)-3-(4-chloro-phenyl)-allyl]-6-difluoromethyl-1′,2′,3′,4′,5′,6′-hexahydro-[2,4]bipyridinyl-3-yl}-isonicotinamide]		≥ 80	≥ 80					≥ 80		
O=C(Nc1ccc(Cl)nc1C1CCN(C/C=C/c2ccc(Cl)cc2)CC1)c1ccnc(Cl)c1 [Comparative Compound A, reference compound]				30	50	70	93			
O=C(Nc1cc(C(F)(F)F)c(Cl)nc1C1CC[N+]([O-])(C/C=C/c2ccc(Br)cc2)CC1)c1ccnc(Cl)c1 (stereo not drawn) [Compound R4]		≥ 80	≥ 80					≥ 80		
O=C(Nc1ccc(C(F)(F)F)nc1C1CC[N+]([O-])(C/C=C/c2ccc(Cl)cc2)CC1)c1ccnc(Cl)c1 (stereo not drawn) [Compound R1]			≥ 80					≥ 80	≥ 80	≥ 80
O=C(Nc1cc(Cl)c(Cl)nc1C1CC[N+]([O-])(C/C=C/c2ccc(Cl)cc2)CC1)c1ccnc(Cl)c1 (stereo not drawn) [Compound R2]	≥ 80	≥ 80	≥ 80					≥ 80		
O=C(Nc1cc(F)c(F)nc1C1CCN(C/C=C/c2ccc(Cl)cc2)CC1)c1ccnc(Cl)c1 [Compound N1, 2-chloro-N-{1′-[(E)-3-(4-chloro-phenyl)-allyl]-5,6-difluoro-1′,2′,3′,4′,5′,6′-hexahydro-[2,4′]bipyridinyl-3-yl}-isonicotinamide]	≥ 80	≥ 80	≥ 80					≥ 80		
O=C(Nc1cc(Cl)cnc1C1CCN(C/C=C/c2ccc(Cl)cc2)CC1)c1ccnc(Cl)c1 [Comparative Compound B, reference compound]				0	50	93	100			
